Reference: patent US9415036B2, “Pharmaceutical composition for use in the treatment or prevention of osteoarticular diseases” (BONE THERAPEUTICS, priority 2008, dated 2016)
Values joined by “and” are separate entries in the source; they are usually repeats but may differ in a detail not shown here. Identical values can stand only once.

Columns and labels:
Assay type in all cases: cell-based, human
IL-1β = IL-1β detection (ELISA) in PBMC culture supernatants
Experimental: (§1) PBMCs (Peripheral blood mononuclear cells) from heparinized venous blood of healthy volunteers were isolated by Ficoll-gradient centrifugation. MNC (Mononuclear cells) were washed three times in PBS and resuspended in RPMI-1640 medium supplemented with 100 U/mL penicillin, 100 μg/mL streptomycin, and 10% heat-inactivated FBS (Fetal Bovine Serum). Cells were seeded at 100.000 cells in 96-wel plate in a total volume of 200 μL/well.
(§2) PBMC, at 100.000 cells/200 μL, were plated in 96-well microtiter plates and stimulated or not with 10 μg/mL phytohemagglutinin (PHA). Effects of hyaluronic acid “HA” (200 μg/mL) and p-aminoclonidine “A2A” (5 μM) were tested on PBMC.
MSC (Mesenchymal stromal cells) were derived from 20 to 60 mL of heparinized bone marrow (BM) obtained from the iliac crest of healthy volunteers. BM was mixed with phosphate-buffered saline (PBS, 2v:v) and layered on density gradient Ficoll solution. After centrifugation, mononuclear cells were harvested from the interface and washed twice in PBS. […]
The culture was incubated with 1 μCi/mL 3H-thymidine for 24 hours before end of culture to measure the proliferation. […] Supernatants were collected and analyzed on a beta-counter in presence of scintillation liquid. […] Levels of IL-1β from PBMC or culture supernatants were measured by Quantikine ELISA kit (R&D Systems Inc, Mineapolis, USA). […]

[1] = tested on: PBMC (Peripheral blood mononuclear cells); experiment: Proliferation assay (3H-thymidine) of PBMC
Experimental: as §1, §2
MSC (Mesenchymal stromal cells) were derived from 20 to 60 mL of heparinized bone marrow (BM) obtained from the iliac crest of healthy volunteers. BM was mixed with phosphate-buffered saline (PBS, 2v:v) and layered on density gradient Ficoll solution. After centrifugation, mononuclear cells were harvested from the interface and washed twice in PBS. Cells were resuspended in standard MEM medium supplemented with 15% FBS. The cells were plated at 2×10^6 cells/75 cm2 flasks and maintained in a 37° C. humidified atmosphere containing 5% CO2. Cells were allowed to attach for 24 hours prior an initial medium change. Cells were detached at day 10 using trypsin-EDTA solution for 1-5 min at 37° C. Then, cells were irradiated (10 minutes at 2200Ci) before seeding in 96-well for proliferative assays at 12.500 cells/well to obtain a ratio 1:8 (MSC:PBMC).
The culture was incubated with 1 μCi/mL 3H-thymidine for 24 hours before end of culture to measure the proliferation. Then, cells were washed twice with ice-cold PBS and twice with ice-cold 5% trichloroacetic acid (TCA). Finally, cells were lysed with 0.1N NaOH-0.1% Triton-X100. Supernatants were collected and analyzed on a beta-counter in presence of scintillation liquid. Results were done in cpm (“count per minute”=disintegration number of radioactive element observed in series of successive counts of one minute). IL-1β (beta) detection (By ELISA). Levels of IL-1β from PBMC or culture supernatants were measured by Quantikine ELISA kit (R&D Systems Inc, Mineapolis, USA). The minimum detectable concentration of IL-1β was estimated at 1.0 pg/mL.
The release of IL-1 beta by PBMC and the proliferation of PBMC, induced by PHA stimulation, were set as controls, and compared with the measures for PBMC treated with HA and/or A2A.

MSCs = MSCs cultured in chondrogenic medium, pellets stained with Alcian blue / Nuclear fast red; details: HA 200 μg/ml, A2A 5 μMol
Experimental: MSCs were culture in chondrogenic medium for 7, 14 and 21 days and 4 conditions were tested • control • A2A: 5 μMol aminoclonidine • HA: 200 μg/ml of hyaluronic acid • HA+A2A: 200 μg/ml of hyaluronic acid and 5 μMol aminoclonidine
At day 14 and 21, pellets were fixed in 10% buffered formalin for 6 hours, and washed twice in PBS. Pellets were then embedded in OCT (Sakura Finetek, Belgium). Sections were cut at a thickness of 5 μm and were stained with Alcian blue, before counterstained with Nuclear fast red (Klinipath, Belgium)
GAGs will be stained blue, while Nuclear fast red will counterstain cells nuclei in pink or red, and cytoplasm in pale pink. In brief, the procedure is 1) Stain in alcian blue solution for 30 minutes; 3) Wash in running tap water for 2 minutes; 4) Rinse in distilled water; 5) Counterstain in nuclear fast red solution for 5 minutes; 6) Wash in running tap water for 1 minute; 7) Dehydrate through 95% alcohol, and 2 changes of absolute alcohol, 3 minutes each; 8) clear in Ultraclear, a xylene substitute (Klinipath, Belgium); 9) Mount with Ultrakit mounting medium (Klinipahth, Belgium). Toluidine blue stains proteoglycan in red-purple (metachromatic staining) and the nucleus in blue (orthochromatic staining). Metachromasia, tissue elements staining a different color from the dye solution, is due to the pH, dye concentration and temperature of the basic dye. […]

[2] = basal (unstimulated) conditions

Question: Which “effect on IL-1beta secretion” value (IL-1β; PHA stimulated PBMC) does the source give for Nc1cc(Cl)c(N=C2NCCN2)c(Cl)c1 [A2A, p-aminoclonidine] here?
Answer: totally suppressed

Question: And the “effect on IL-1beta secretion” value (IL-1β; [2])?
Answer: no effect

Question: And the Proliferation ([1]; PBMC stimulated with 10 μg/mL PHA, HA 200 μg/mL, A2A 5 μM, MSC:PBMC 1:8)?
Answer: 16212 cpm

Question: What about the “effect on PBMC proliferation” value ([1]; PHA stimulated PBMC) of the same compound?
Answer: not able to inhibit

Question: What about the Proliferation ([1]; PHA stimulated PBMC, PBMC + PHA set at 100) of the same compound?
Answer: 101% and 100%

Question: And the “effect on PBMC proliferation” value [1, 2]?
Answer: no effect

Question: What about the Proliferation ([1]; unstimulated PBMC, HA 200 μg/mL, A2A 5 μM, MSC:PBMC 1:8) of the same compound?
Answer: 786 cpm

Question: And the Proliferation ([1]; unstimulated PBMC, PBMC + PHA set at 100)?
Answer: 4.9%

Question: And the “matrix (mucopolysaccharides and glycosaminoglycans) content / production, Alcian blue staining” value (MSCs)?
Answer: almost absent
